B1: Evolocumab (antibody, chains of the INN, looked up, V domains shown)
VH: EVQLVQSGAEVKKPGASVKVSCKASGYTLTSYGISWVRQAPGQGLEWMGWVSFYNGNTNYAQKLQGRGTMTTDPSTSTAYMELRSLRSDDTAVYYCARGYGMDVWGQGTTVTVSS
VL: ESALTQPASVSGSPGQSITISCTGTSSDVGGYNSVSWYQQHPGKAPKLMIYEVSNRPSGVSNRFSGSKSGNTASLTISGLQAEDEADYYCNSYTSTSMVFGGGTKLTVL

Experiments:
[1] = test system: LXR target genes (FAS and SREBP1) in hepatocytes; experiment: Expression of LXR target genes in hepatocytes (QPCR); format: cell-based, mouse; conditions: 0.2 μM, 24 h
Method: FIG. 6A-6D. mDNP-LXR-L delivered LXR ligand appropriately increases gene expression leading to increased FC efflux. FIGS. 6A and 6B: MPMs (FIG. 6A) or Primary hepatocytes (FIG. 6B) were plated in 6-well culture dishes and incubated with either LXR ligand T0901317 or mDNP or mDNP-LXR-L (0.2 μM) for 24 h; untreated cells were used as Controls. Expression of LXR target genes (ABCA1 and ABCG1 in MPMs and FAS and SREBP1 in hepatocytes) was evaluated by QPCR using total RNA as described under “Methods”. Data (Mean±SD, n=3) are expressed as fold increase over Controls. FIG. 6C: MPMs were plated in 6-well plates were exposed to either LXR ligand T0901317 or mDNP or mDNP-LXR-L (0.2 μM) for 24 h. Cells were washed once with cold PBS and harvested in cold buffer on ice as described under “Methods”. Following disruption of cells by sonication and removal of cell debris, CEH activity was measured using a radiometric assay. CEH activity (Mean±SD, n=3) is expressed as % untreated Controls. FIG. 6D: MPMs, plated in 24-well plate, were loaded and labeled with [^3H]-cholesterol as described under “Methods”. During the 24 h equilibration, cells were exposed to either LXR ligand T0901317 or mDNP or mDNP-LXR-L (0.2 μM). FC efflux to medium containing 10% FBS was monitored for 8 and 24 h. Data (Mean±SD, n=6) are expressed as % efflux. *P<0.05 and NS—not significant. […]

[2] = test system: atherosclerotic plaque volume in patients; conditions: randomized controlled trial; cited from earlier work

Row | Molecule | expression of FAS and SREBP1 [1] | decrease in atheroma volume [2] [%]
1 | O=S(=O)(c1ccccc1)N(CC(F)(F)F)c1ccc(C(O)(C(F)(F)F)C(F)(F)F)cc1 [free LXR-L, T0901317] | significant increase | 
2 | B1 |  | 0.95
